From PubChem BioAssay (NCI)
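Five compound concentrations were applied to cells in 96-well plates for 48 hours; endpoints were derived by simple linear interpolation of the resulting dose-response curve. The concentration for full growth arrest is given as TGI.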

Assays:
Assay in all cases: DTP human tumour cell line panel, 48 h
SK-MEL-5 melanoma = system: SK-MEL-5 melanoma
786-0 renal = system: 786-0 renal
MALME-3M melanoma = system: MALME-3M melanoma
SN12C renal = system: SN12C renal
NCI-H23 lung = system: NCI-H23 lung
CAKI-1 renal = system: CAKI-1 renal
U251 CNS = system: U251 CNS
SR leukemia = system: SR leukemia
NCI-H522 lung = system: NCI-H522 lung
BT-549 breast = system: BT-549 breast
SNB-19 CNS = system: SNB-19 CNS
MCF7 breast = system: MCF7 breast
HT29 colon = system: HT29 colon
HCT-15 colon = system: HCT-15 colon
PC-3 prostate = system: PC-3 prostate
OVCAR-5 ovarian = system: OVCAR-5 ovarian
SK-OV-3 ovarian = system: SK-OV-3 ovarian
HOP-62 NSCLC = system: HOP-62 NSCLC
MDA-MB-435 = system: MDA-MB-435
HCT-116 colon = system: HCT-116 colon
RXF 393 renal = system: RXF 393 renal
A549 NSCLC = system: A549 NSCLC
M14 melanoma = system: M14 melanoma
EKVX NSCLC = system: EKVX NSCLC
SK-MEL-28 melanoma = system: SK-MEL-28 melanoma
MDA-N = system: MDA-N
SNB-75 CNS = system: SNB-75 CNS
SW-620 colon = system: SW-620 colon
OVCAR-4 ovarian = system: OVCAR-4 ovarian
T-47D breast = system: T-47D breast
NCI-H460 lung = system: NCI-H460 lung
HS 578T breast = system: HS 578T breast
SF-268 CNS = system: SF-268 CNS
MOLT-4 leukemia = system: MOLT-4 leukemia
HCC-2998 colon = system: HCC-2998 colon
NCI/ADR-RES ovarian = system: NCI/ADR-RES ovarian
HL-60(TB) leukemia = system: HL-60(TB) leukemia
ACHN renal = system: ACHN renal
SK-MEL-2 melanoma = system: SK-MEL-2 melanoma
NCI-H226 lung = system: NCI-H226 lung
UO-31 renal = system: UO-31 renal
OVCAR-8 ovarian = system: OVCAR-8 ovarian
LOX IMVI melanoma = system: LOX IMVI melanoma
TK-10 renal = system: TK-10 renal
OVCAR-3 ovarian = system: OVCAR-3 ovarian
SF-539 CNS = system: SF-539 CNS
SF-295 CNS = system: SF-295 CNS
RPMI-8226 leukemia = system: RPMI-8226 leukemia
DU-145 prostate = system: DU-145 prostate
UACC-257 melanoma = system: UACC-257 melanoma
K-562 leukemia = system: K-562 leukemia
KM12 colon = system: KM12 colon
CCRF-CEM leukemia = system: CCRF-CEM leukemia
IGROV1 ovarian = system: IGROV1 ovarian
MDA-MB-231 breast = system: MDA-MB-231 breast
UACC-62 melanoma = system: UACC-62 melanoma
COLO 205 colon = system: COLO 205 colon
A498 renal = system: A498 renal
HOP-92 NSCLC = system: HOP-92 NSCLC

Measured: TGI

CC1=C(C(=O)OCCc2ccc([N+](=O)[O-])cc2)C(c2ccccc2[N+](=O)[O-])C(C(=O)OC(C)C)=C(C)N1 (stereo not given)
9.93 µM: MOLT-4 leukemia
58.4 µM: UACC-62 melanoma
65.3 µM: NCI-H226 lung
7.82 µM: NCI-H522 lung
5.14 µM: SK-MEL-5 melanoma
23.2 µM: CCRF-CEM leukemia
35.9 µM: RXF 393 renal
36.7 µM: M14 melanoma
39.2 µM: EKVX NSCLC
8.48 µM: HL-60(TB) leukemia
17.9 µM: 786-0 renal
71.2 µM: BT-549 breast
40.9 µM: SK-MEL-2 melanoma
18 µM: PC-3 prostate
> 100 µM: MALME-3M melanoma | SN12C renal | NCI-H23 lung | CAKI-1 renal | U251 CNS | SR leukemia | SNB-19 CNS | MCF7 breast | HT29 colon | HCT-15 colon | OVCAR-5 ovarian | SK-OV-3 ovarian | HOP-62 NSCLC | MDA-MB-435 | HCT-116 colon | A549 NSCLC | SK-MEL-28 melanoma | MDA-N | SNB-75 CNS | SW-620 colon | OVCAR-4 ovarian | T-47D breast | NCI-H460 lung | HS 578T breast | SF-268 CNS | HCC-2998 colon | ACHN renal | UO-31 renal | OVCAR-8 ovarian | LOX IMVI melanoma | TK-10 renal | OVCAR-3 ovarian | SF-539 CNS | SF-295 CNS | RPMI-8226 leukemia | DU-145 prostate | UACC-257 melanoma | K-562 leukemia | KM12 colon | IGROV1 ovarian | MDA-MB-231 breast | COLO 205 colon
20 µM: NCI/ADR-RES ovarian

C/C(=C\c1ccc(Cl)cc1)C(C)(C)C(=O)O
> 100 µM: SK-MEL-5 melanoma | 786-0 renal | MALME-3M melanoma | SN12C renal | NCI-H23 lung | CAKI-1 renal | U251 CNS | SR leukemia | NCI-H522 lung | BT-549 breast | SNB-19 CNS | MCF7 breast | HT29 colon | HCT-15 colon | PC-3 prostate | OVCAR-5 ovarian | SK-OV-3 ovarian | HOP-62 NSCLC | MDA-MB-435 | HCT-116 colon | RXF 393 renal | A549 NSCLC | M14 melanoma | EKVX NSCLC | SK-MEL-28 melanoma | MDA-N | SNB-75 CNS | SW-620 colon | OVCAR-4 ovarian | T-47D breast | NCI-H460 lung | HS 578T breast | SF-268 CNS | MOLT-4 leukemia | HCC-2998 colon | NCI/ADR-RES ovarian | A498 renal | HL-60(TB) leukemia | ACHN renal | SK-MEL-2 melanoma | HOP-92 NSCLC | NCI-H226 lung | UO-31 renal | OVCAR-8 ovarian | TK-10 renal | OVCAR-3 ovarian | SF-539 CNS | SF-295 CNS | RPMI-8226 leukemia | DU-145 prostate | UACC-257 melanoma | K-562 leukemia | KM12 colon | CCRF-CEM leukemia | IGROV1 ovarian | MDA-MB-231 breast | UACC-62 melanoma | COLO 205 colon
